Patent US20050053575A1, “Antigenic product displaying multiple copies of an epitope of a deposit-forming polypeptide involved in plaque-forming diseases and methods of using same” (Ramot At Tel Aviv University Ltd, priority 2001, published 2005)
No end group written: not given here.

Experiments:
[1] = tested on: serum antibody raised against f88-EFRH; test: Competitive inhibition by peptides within βAP of serum antibody raised against f88-EFRH (ELISA); type: binding; details: Nd = IC50 which cannot be detected by ELISA, read-out: Competitive inhibition of MICE SERUM antibody (IC50)
Description: The antibodies resulting from EFRH (SEQ ID NO:5) phage immunization are similar regarding their immunological properties to antibodies raised by direct injection with whole β-amyloid (Table 1). […] The high immunogenicity of filamentous phages enables the raising of antibodies against self-antigens.

[2] = tested on: amyloid anti-aggregating antibody; details: Frenkel et al. 1998; ELISA; Nd = IC50 which cannot be detected by ELISA; read-out: Competitive inhibition of anti-aggregating antibody (IC50); cited from earlier work
[3] = tested on: β-amyloid peptide 1-16 (EFRH-epitope); test: Immunization of Balb/C mice; serum Ig titers by ELISA against the EFRH-epitope (β-amyloid peptide 1-16); type: in vivo; details: i.p., filamentous phage as adjuvant, five injections; FIG. 10
Method: Four mice (named A, B, C, D) were immunized at two week intervals with 100 μg of MAP-[…] (SEQ ID NO:1)+adjuvant (either Complete Freund's or Incomplete Freund's adjuvant) by intraperitoneal injection, and two mice were immunized with H2O+adjuvant as a negative control. All mice were 8 week old female mice.
In experiments of antibody binding to β-amyloid peptide 1-16, 100 ng/well biotinylated β-amyloid peptides 1-16 were bound to streptavidin-coated microtiter plates for ½ h at room temperature. ELISA plates were previously coated with streptavidin for 16 h at 4° C. after washing, bound antibodies to β-peptide were detected by incubation with horseradish peroxidase-conjugated antibodies, as previously described in Frenkel et al. (1999). The Ig type was measured with rabit anti-mouse IgG and anti-mouse IgM labeled with horseradish peroxidase.
Two female mice 8 weeks old (named A and B) were immunized at approximately two week intervals with 200 μg of MAP-(EFRH)2+filamentous phage as adjuvant by intraperitoneal injection.
Two female mice 8 weeks old (named G and H) were immunized at approximately two week intervals with the streptavidin and biotinylated MAP-[…] (SEQ ID NO:1) complex (100 μg of MAP-[…] (SEQ ID NO:1) per mouse) by intraperitoneal injection without adjuvant.

Substance	IC50 [1]	IC50 [2]	Immune response (serum IgG titers) [3]
DAEFRH [peptide, residues 1-6 of AβP]	3 µM	0.8 µM	
DAEFRHD [peptide, residues 1-7 of AβP]	5 µM	0.9 µM	
DAEFRHDSG	5 µM	1 µM	
FRH: peptide, residues 4-6 of AβP (Amyloid-beta protein 40; UniProt P05067 675-677, looked up, fragment)	~1000 µM	3000 µM	
MAP-(EFRH)2: octavalent MAP carrying TyrGluPheArgHisTyrGluPheArgHis (SEQ ID NO:4), two EFRH epitopes per peptide (YEFRHYEFRH; also: octavalent lysine-core MAP)			strong immune response
βAP(1-40): full length β-amyloid peptide (1-40)	3 µM	0.8 µM	
